Data published in PubChem BioAssay AID248 (DTP/NCI, 2004).
Where “and” joins values, the source holds several entries; their conditions need not be identical. Identical values can stand only once. Toxic doses and inconclusive results are not listed. Cut-off read from the data, not from the text of the source: active = T/C of 150% or more; inactive = T/C below 125%. Square brackets hold non-standard residues; d marks the D form. Peptide text beside a SMILES is read from it. * marks the point of attachment. ξ: configuration not given here. Cbz = O=C(OCc1ccccc1)*; OBn = c1ccc(CO*)cc1; ξS = NC(CO)C(=O)O

Tested on: L1210 leukemia ip in BDF1 mice, survival T/C
Assay: NCI In Vivo Anticancer Drug Screen. Data for tumor model L1210 Leukemia (intraperitoneal) in B6D2F1 (BDF1) mice
Details: endpoint: mean survival time, higher = longer survival
Summary of the method: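 Survival endpoint. Drug-treated group vs vehicle group, expressed as T divided by C. Tumor passaged by transplantation.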

[1] = dose: 100.0 mg/kg/injection, schedule: Q01DX009 (ip), vehicle: Klucel (hydroxypropylcellulose) (HPC)
[2] = dose: 100.0 mg/kg/injection, schedule: Q04DX003 (ip), vehicle: Klucel (hydroxypropylcellulose) (HPC)
[3] = dose: 200.0 mg/kg/injection, schedule: Q04DX003 (ip), vehicle: Klucel (hydroxypropylcellulose) (HPC)
[4] = dose: 400.0 mg/kg/injection, schedule: Q04DX003 (ip), vehicle: Klucel (hydroxypropylcellulose) (HPC)
[5] = dose: 100.0 mg/kg/injection, schedule: Q01DX001 (ip), vehicle: other
[6] = dose: 200.0 mg/kg/injection, schedule: Q01DX001 (ip), vehicle: other
[7] = dose: 400.0 mg/kg/injection, schedule: Q01DX001 (ip), vehicle: other

Measured: T/C

CC(=O)NC1CCC(/C=C(\C#N)C2CCC([N+](=O)[O-])CC2)CC1 (stereo not drawn)
inactive: dose: 25.0 mg/kg/injection, schedule: Q04DX002 (ip), vehicle: saline with Tween-80 97 % of control | dose: 50.0 mg/kg/injection, schedule: Q04DX002 (ip), vehicle: saline with Tween-80 94 % of control | dose: 100.0 mg/kg/injection, schedule: Q04DX002 (ip), vehicle: saline with Tween-80 94 % of control | dose: 200.0 mg/kg/injection, schedule: Q04DX002 (ip), vehicle: saline with Tween-80 86 % of control | dose: 400.0 mg/kg/injection, schedule: Q04DX002 (ip), vehicle: saline with Tween-80 104 % of control

NS(=O)(=O)c1ccc(NC(=O)Nc2ccc(F)cc2)cc1
inactive: dose: 100.0 mg/kg/injection, schedule: Q01DX001 (ip), vehicle: carboxymethylcellulose (CMC) 99 % of control | dose: 100.0 mg/kg/injection, schedule: Q01DX009 (ip), vehicle: carboxymethylcellulose (CMC) 94 % of control and 101 % of control | dose: 100.0 mg/kg/injection, schedule: Q04DX002 (ip), vehicle: carboxymethylcellulose (CMC) 92 % of control and 100 % of control | dose: 100.0 mg/kg/injection, schedule: Q04DX003 (ip), vehicle: carboxymethylcellulose (CMC) 93 % of control | dose: 200.0 mg/kg/injection, schedule: Q01DX001 (ip), vehicle: carboxymethylcellulose (CMC) 96 % of control | dose: 200.0 mg/kg/injection, schedule: Q01DX009 (ip), vehicle: carboxymethylcellulose (CMC) 94 % of control and 100 % of control | dose: 200.0 mg/kg/injection, schedule: Q04DX002 (ip), vehicle: carboxymethylcellulose (CMC) 100 % of control and 89 % of control | dose: 200.0 mg/kg/injection, schedule: Q04DX003 (ip), vehicle: carboxymethylcellulose (CMC) 104 % of control | dose: 400.0 mg/kg/injection, schedule: Q01DX001 (ip), vehicle: carboxymethylcellulose (CMC) 99 % of control | dose: 400.0 mg/kg/injection, schedule: Q01DX009 (ip), vehicle: carboxymethylcellulose (CMC) 94 % of control and 101 % of control | dose: 400.0 mg/kg/injection, schedule: Q04DX002 (ip), vehicle: carboxymethylcellulose (CMC) 100 % of control and 102 % of control | dose: 400.0 mg/kg/injection, schedule: Q04DX003 (ip), vehicle: carboxymethylcellulose (CMC) 104 % of control

CCOC(=O)CC(N)CC(=O)OCC
inactive: dose: 100.0 mg/kg/injection, schedule: Q01DX001 (ip), vehicle: saline 104 % of control | dose: 200.0 mg/kg/injection, schedule: Q01DX001 (ip), vehicle: saline 104 % of control | dose: 400.0 mg/kg/injection, schedule: Q01DX001 (ip), vehicle: saline 106 % of control

CC(C)c1ccccc1SCC1=NCCN1
inactive: dose: 10.0 mg/kg/injection, schedule: Q04DX003 (ip), vehicle: Klucel (hydroxypropylcellulose) (HPC) 103 % of control | dose: 20.0 mg/kg/injection, schedule: Q04DX003 (ip), vehicle: Klucel (hydroxypropylcellulose) (HPC) 115 % of control

CCOP(=O)(OCC)C1C(C)N1C(=O)Nc1ccccc1 (stereo not drawn)
inactive: dose: 25.0 mg/kg/injection, schedule: Q01DX009 (ip), vehicle: Klucel (hydroxypropylcellulose) (HPC) 106 % of control | dose: 50.0 mg/kg/injection, schedule: Q01DX009 (ip), vehicle: Klucel (hydroxypropylcellulose) (HPC) 105 % of control | [1] 110 % of control | [2] 101 % of control | [3] 100 % of control | [4] 106 % of control

O=Cc1[nH]c(=O)[nH]c(=O)c1Br
inactive: dose: 50.0 mg/kg/injection, schedule: Q01DX009 (ip), vehicle: saline with Tween-80 94 % of control | dose: 100.0 mg/kg/injection, schedule: Q01DX001 (ip), vehicle: saline with Tween-80 112 % of control | dose: 100.0 mg/kg/injection, schedule: Q01DX009 (ip), vehicle: saline with Tween-80 98 % of control | dose: 200.0 mg/kg/injection, schedule: Q01DX001 (ip), vehicle: saline with Tween-80 116 % of control

CCC(C)C(C1=C(O)c2ccccc2C(=O)C1=O)C1=C(O)c2ccccc2C(=O)C1=O (stereo not drawn)
inactive: dose: 75.0 mg/kg/injection, schedule: Q01DX001 (ip), vehicle: carboxymethylcellulose (CMC) 97 % of control | dose: 150.0 mg/kg/injection, schedule: Q01DX001 (ip), vehicle: carboxymethylcellulose (CMC) 104 % of control

O=NN(CCN(N=O)c1ccccc1)c1ccccc1
inactive: [5] 97 % of control | dose: 100.0 mg/kg/injection, schedule: Q04DX003 (ip), vehicle: other 104 % of control | [6] 97 % of control | dose: 200.0 mg/kg/injection, schedule: Q04DX003 (ip), vehicle: other 101 % of control | [7] 92 % of control | dose: 400.0 mg/kg/injection, schedule: Q04DX003 (ip), vehicle: other 97 % of control

Cc1ncc2c[n+]([O-])ccn12
inactive: dose: 100.0 mg/kg/injection, schedule: Q04DX003 (ip), vehicle: saline 97 % of control | dose: 200.0 mg/kg/injection, schedule: Q04DX003 (ip), vehicle: saline 98 % of control

Cc1ccc(OCC(=O)O)c(Cl)c1
inactive: [1] 104 % of control | dose: 200.0 mg/kg/injection, schedule: Q01DX009 (ip), vehicle: Klucel (hydroxypropylcellulose) (HPC) 94 % of control

CCCCCCCCOC(=O)c1[nH]cnc1/N=N\N(C)C
inactive: dose: 45.0 mg/kg/injection, schedule: Q01DX015 (ip), vehicle: other 103 % of control | dose: 88.0 mg/kg/injection, schedule: Q01DX001 (ip), vehicle: other 96 % of control | [5] 102 % of control | dose: 133.0 mg/kg/injection, schedule: Q01DX001 (ip), vehicle: other 88 % of control | dose: 133.0 mg/kg/injection, schedule: Q01DX009 (ip), vehicle: other 101 % of control | dose: 180.0 mg/kg/injection, schedule: Q01DX015 (ip), vehicle: other 122 % of control | [6] 109 % of control and 90 % of control | dose: 200.0 mg/kg/injection, schedule: Q01DX009 (ip), vehicle: other 95 % of control | dose: 300.0 mg/kg/injection, schedule: Q01DX001 (ip), vehicle: other 100 % of control | dose: 300.0 mg/kg/injection, schedule: Q01DX009 (ip), vehicle: other 100 % of control | [7] 104 % of control | dose: 450.0 mg/kg/injection, schedule: Q01DX009 (ip), vehicle: other 97 % of control

CN(C)c1ccc(S(=O)(=O)c2ccc(N(C)C)c([N+](=O)[O-])c2)cc1[N+](=O)[O-]
inactive: dose: 100.0 mg/kg/injection, schedule: Q04DX002 (ip), vehicle: DMSO 107 % of control | dose: 200.0 mg/kg/injection, schedule: Q04DX002 (ip), vehicle: DMSO 103 % of control | dose: 400.0 mg/kg/injection, schedule: Q04DX002 (ip), vehicle: DMSO 103 % of control

O=C(CNC(=O)OCc1ccccc1)NC(CO)C(=O)OCc1ccccc1 (stereo not drawn) (Cbz-Gly-[ξS]-OBn)
inactive: [2] 101 % of control | [3] 101 % of control | [4] 105 % of control

[C-]#[N+]C(C)(C)CC(C)(C)C
inactive: dose: 18.75 mg/kg/injection, schedule: Q04DX003 (ip), vehicle: acetone 103 % of control | dose: 33.0 mg/kg/injection, schedule: Q01DX001 (ip), vehicle: Klucel (hydroxypropylcellulose) (HPC) 110 % of control | dose: 33.0 mg/kg/injection, schedule: Q01DX001 (ip), vehicle: saline 104 % of control | dose: 37.5 mg/kg/injection, schedule: Q04DX003 (ip), vehicle: acetone 109 % of control | dose: 50.0 mg/kg/injection, schedule: Q01DX001 (ip), vehicle: Klucel (hydroxypropylcellulose) (HPC) 105 % of control | dose: 50.0 mg/kg/injection, schedule: Q01DX001 (ip), vehicle: saline 106 % of control | dose: 75.0 mg/kg/injection, schedule: Q01DX001 (ip), vehicle: Klucel (hydroxypropylcellulose) (HPC) 96 % of control | dose: 75.0 mg/kg/injection, schedule: Q01DX001 (ip), vehicle: saline 104 % of control | dose: 75.0 mg/kg/injection, schedule: Q04DX003 (ip), vehicle: acetone 107 % of control | dose: 110.0 mg/kg/injection, schedule: Q04DX003 (ip), vehicle: saline 94 % of control | dose: 170.0 mg/kg/injection, schedule: Q04DX003 (ip), vehicle: saline 106 % of control
